Measurements published in article PMC6020091 (Chemistry Central Journal, 2018).

Key:
[1] = target: T1, AChE (acetylcholinesterase) (Electrophorus electricus, UniProt O42275); assay: colorimetric hydroxamic acid/FeCl3 assay of remaining ACh (Bonting and Featherstone), enzyme kinetics with Lineweaver-Burk plot; assay type: biochemical
[2] = target: T1, AChE (acetylcholinesterase); assay: colorimetric hydroxamic acid/FeCl3 assay of remaining ACh (Bonting and Featherstone), non-linear regression; assay type: biochemical

T1 sequence (O42275 24-633 limits assumed): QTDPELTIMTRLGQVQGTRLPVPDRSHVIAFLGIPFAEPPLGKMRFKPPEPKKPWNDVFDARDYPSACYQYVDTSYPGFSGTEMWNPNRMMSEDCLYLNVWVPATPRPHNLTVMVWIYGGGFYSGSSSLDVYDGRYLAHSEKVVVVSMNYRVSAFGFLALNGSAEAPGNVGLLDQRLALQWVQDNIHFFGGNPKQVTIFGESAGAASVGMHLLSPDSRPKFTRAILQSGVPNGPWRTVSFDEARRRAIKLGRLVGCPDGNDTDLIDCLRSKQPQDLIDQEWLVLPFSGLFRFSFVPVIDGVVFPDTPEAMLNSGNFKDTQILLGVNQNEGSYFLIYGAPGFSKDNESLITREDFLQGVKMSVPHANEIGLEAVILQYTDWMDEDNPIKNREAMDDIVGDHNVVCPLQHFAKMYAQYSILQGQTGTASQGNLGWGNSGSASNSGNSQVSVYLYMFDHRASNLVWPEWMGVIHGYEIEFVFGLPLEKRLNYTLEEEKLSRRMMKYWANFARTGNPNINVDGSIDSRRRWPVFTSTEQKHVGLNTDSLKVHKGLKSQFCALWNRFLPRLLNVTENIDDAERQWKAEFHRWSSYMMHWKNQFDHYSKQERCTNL

Row | Compound | Ki [1] [µM] | Ki [2] [µM]
1 | COc1ccc(CCN2C(=O)c3ccccc3C2=O)cc1OC [compound 1] | 330 to 930 | 
2 | CN(C)C(=O)Oc1cccc([N+](C)(C)C)c1 [neostigmine] |  | 93 to 157
